Measurements from ChEMBL document CHEMBL1201862, “PubChem BioAssay data set” (2004).
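All cell lines were grown in 96-well plates and treated with compound for 48 hours. GI50 marks 50% less growth.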 Active and inactive are the calls of the source. No stated cut-off is given here; in the data, active = GI50 up to about 1.1 µM and inactive = higher.

Legend:
Test in all cases: growth of human tumour cells (NCI), 48 h
[1] = test system: A549
[2] = test system: COLO 205
[3] = test system: HCT-116
[4] = test system: HL-60
[5] = test system: HOP-62
[6] = test system: NCI-H226
[7] = test system: NCI-H522
[8] = test system: SF-295
[9] = test system: SF-539
[10] = test system: SK-MEL-28
[11] = test system: SK-MEL-2
[12] = test system: SN12C
[13] = test system: SW-620
[14] = test system: UACC-257
[15] = test system: HOP-92
[16] = test system: SK-MEL-5
[17] = test system: SR

Compound	GI50 [1]	GI50 [2]	GI50 [3]	GI50 [4]	GI50 [5]	GI50 [6]	GI50 [7]	GI50 [8]	GI50 [9]	GI50 [10]	GI50 [11]	GI50 [12]	GI50 [13]	GI50 [14]	GI50 [15]	GI50 [16]	GI50 [17]
CN1COCN/C1=N/C#N	> 100 µM (inactive)	> 100 µM (inactive)	> 100 µM (inactive)	> 100 µM (inactive)	> 100 µM (inactive)	> 100 µM (inactive)	> 100 µM (inactive)	> 100 µM (inactive)	> 100 µM (inactive)	> 100 µM (inactive)	> 100 µM (inactive)	> 100 µM (inactive)	> 100 µM (inactive)	> 100 µM (inactive)			
CC1=NCCc2cc3[nH]c4ccccc4c3cc21	33.2 µM (inactive)	9.91 µM (inactive)	12.8 µM (inactive)	12.1 µM (inactive)	49.3 µM (inactive)	15.2 µM (inactive)	21.3 µM (inactive)	13.4 µM (inactive)	12.6 µM (inactive)	10.7 µM (inactive)	11.3 µM (inactive)	17.5 µM (inactive)	15.7 µM (inactive)	10.3 µM (inactive)	0.897 µM (active)	11.8 µM (inactive)	
Cc1ccc(C(=O)N2c3ccccc3N(C)n3cccc3C2CC(=O)O)cc1 (stereo unspecified)	> 100 µM (inactive)	> 100 µM (inactive)		> 100 µM (inactive)	> 100 µM (inactive)	> 100 µM (inactive)	> 100 µM (inactive)	> 100 µM (inactive)	> 100 µM (inactive)	> 100 µM (inactive)	> 100 µM (inactive)	> 100 µM (inactive)	> 100 µM (inactive)	> 100 µM (inactive)	> 100 µM (inactive)	> 100 µM (inactive)	
C[C@]12CCC(=O)C(O)=C1CCC2=O	> 100 µM (inactive)	> 100 µM (inactive)	> 100 µM (inactive)	> 100 µM (inactive)	> 100 µM (inactive)	> 100 µM (inactive)	> 100 µM (inactive)	> 100 µM (inactive)	> 100 µM (inactive)	> 100 µM (inactive)		> 100 µM (inactive)	> 100 µM (inactive)	> 100 µM (inactive)	> 100 µM (inactive)	> 100 µM (inactive)	> 100 µM (inactive)
O=C(O)C12CC3CC(CC(F)(C3)C1)C2	> 100 µM (inactive)	> 100 µM (inactive)	> 100 µM (inactive)	> 100 µM (inactive)	> 100 µM (inactive)		> 100 µM (inactive)		> 100 µM (inactive)	> 100 µM (inactive)	> 100 µM (inactive)		> 100 µM (inactive)	> 100 µM (inactive)	> 100 µM (inactive)	> 100 µM (inactive)	
CCOC(=N)CC(=O)Nc1cccc(C)c1C	> 100 µM (inactive)	> 100 µM (inactive)	> 100 µM (inactive)	> 100 µM (inactive)	> 100 µM (inactive)	> 100 µM (inactive)	> 100 µM (inactive)	> 100 µM (inactive)	> 100 µM (inactive)	> 100 µM (inactive)	> 100 µM (inactive)	> 100 µM (inactive)	> 100 µM (inactive)	> 100 µM (inactive)		> 100 µM (inactive)	> 100 µM (inactive)
C=C1C(=O)[C@@]23CC[C@H]4[C@@](C)(CCC[C@@]4(C)C(=O)OC)[C@@H]2CC[C@]1(O)C3	3.1 µM (inactive)	1.72 µM (inactive)	0.953 µM (active)	0.301 µM (active)	20.2 µM (inactive)	3.3 µM (inactive)	1.54 µM (inactive)	5.82 µM (inactive)	1.76 µM (inactive)	1.84 µM (inactive)	1.71 µM (inactive)	1.77 µM (inactive)	0.624 µM (active)	1.72 µM (inactive)	1.78 µM (inactive)	1.93 µM (inactive)	
CC1CCCC2(O1)OC1CC(=O)OC1C1=C2C(=O)c2ccccc2C1=O (stereo unspecified)	16.9 µM (inactive)	2.02 µM (inactive)		1.39 µM (inactive)	16.4 µM (inactive)	1.3 µM (inactive)	1.6 µM (inactive)	17.6 µM (inactive)	5.81 µM (inactive)	2.14 µM (inactive)	2.33 µM (inactive)	2.18 µM (inactive)	1.67 µM (inactive)	1.81 µM (inactive)		2.06 µM (inactive)	
CCCCCCCCCCCCCCCC(=O)N[C@H]1CCc2cc(OC)c(OC)c(OC)c2-c2ccc(SC)c(=O)cc21	0.486 µM (active)	0.187 µM (active)	0.338 µM (active)	0.279 µM (active)	7.73 µM (inactive)	0.196 µM (active)		0.664 µM (active)	0.294 µM (active)	0.782 µM (active)	1.46 µM (inactive)	0.649 µM (active)	0.45 µM (active)	0.527 µM (active)	0.891 µM (active)	0.5 µM (active)	0.258 µM (active)
